Reference: US20250333709A1, “BRAIN ENDOTHELIAL CELLS AND METHODS OF MAKING” (President and Fellows of Harvard College, priority 2022, published 2025)
Like-named read-outs stand apart in the source and are kept apart here.

What was measured:
iPSC-ECs [1] = experiment: mRNA levels of brain EC genes in iPSC-ECs with HDAC inhibitor, Wnt pathway activator and PKC activator; format: cell-based, human; conditions: 48 hours, presence and absence of quisinostat 10 nM, Chir99021 5 uM, WNT3A 100 ng/ml, IndoV 100 nM, PMA 100 nM, FIG. 5C
Description: FIGS. 5A-5C show overexpression of brain EC-specific transcription factors and inhibition of HDAC induce a subset of brain EC-enriched genes. […] Chir99021, 5 uM; WNT3A, 100 ng/ml; IndoV, 100 nM; PMA, 100 nM, Q, quisinostate 10 nM; 48 hours. *, P<0.05 vs. Control; **, P<0.01 vs. Control.

iPSC-ECs [2] = experiment: GLUT1 and PLVAP expression in iPSC-ECs after Wnt signaling activation (immunostaining, mRNA); format: cell-based, human; conditions: vs. EGM2, FIG. 2A-2C
Text: CTNNB1::GFP iPSC line (Allen Cell, AICS-0058-067iPSC) was used to visualize subcellular localization of beta-catenin protein. *, P<0.05 vs. EGM2; **, P<0.01 vs. EGM2. Scale bars, 100 um.

iPSC-ECs [3] = conditions: 10 uM for 2 days, FIG. 4A, 4C
Description: Representative immunostaining images of iPSC-ECs after treatment with TGFBR1 inhibitor RepSox (10 uM, FIG. 4A) and human recombinant TGF beta (FIG. 4B). […] All compounds were treated at 10 uM concentrations for 2 days. […] Scale bars, 100 um.

iPSC-ECs [4] = experiment: Brain EC gene regulation in iPSC-ECs exposed to a combination of WNT3A, CNTF and RepSox; format: cell-based, human; conditions: FIG. 4D
iPSC-ECs [5] = experiment: CLDN5 expression in CNTF-treated iPSC-ECs (immunostaining); format: cell-based, human; conditions: CNTF 20 ng/ml, CNTFRa 100 ng/ml, FIG. 3
Description: FIG. 3A illustrates iPSC-ECs exposed to either fresh astrocyte medium (AM) or astrocyte-conditioned medium (ACM). Conditioned medium was collected for 48 hours. Both AM and ACM were treated as 1:1 mixture with EC medium (EGM2). […] Human recombinant ciliary neurotrophic factor (CNTF), 20 ng/ml; human recombinant CNTF receptor alpha (CNTFRa), 100 ng/ml. […] PM and PCM were treated as 1:1 mixture with EGM2 for 2 days. […] Scale bars, 100 um.

Molecule: Cc1c[nH]c(-c2cnc(NCCNc3ccc(C#N)cn3)nc2-c2ccc(Cl)cc2Cl)n1 [Chir99021]
- expression of ABCB1 (mRNA) (iPSC-ECs [1]): induce
- expression of MFSD2A (mRNA) (iPSC-ECs [1]): induce
- GLUT1 expression (iPSC-ECs [2]): upregulates
- PLVAP expression (iPSC-ECs [2]): downregulates

Molecule: CC(C)[C@H]1C(=O)N[C@H](CO)Cc2c[nH]c3cccc(c23)N1C [IndoV]
- expression of ABCB1 (mRNA) (iPSC-ECs [1]): induce
- expression of MFSD2A (mRNA) (iPSC-ECs [1]): induce

Molecule: CCCCCCCCCCCCCC(=O)O[C@@H]1[C@@H](C)[C@@]2(O)[C@@H](C=C(CO)C[C@]3(O)C(=O)C(C)=C[C@@H]23)[C@@H]2C(C)(C)[C@]12OC(C)=O [PMA]
- expression of ABCB1 (mRNA) (iPSC-ECs [1]): induce
- expression of MFSD2A (mRNA) (iPSC-ECs [1]): induce

Molecule: Cc1cccc(-c2[nH]ncc2-c2ccc3ncccc3n2)n1 [RepSox]
- CLDN5 expression (iPSC-ECs [3]): increase
- effect on brain EC gene regulation (iPSC-ECs [4]): additive effect

B1: WNT3A: Wnt ligand used at 100 ng/ml to activate Wnt signaling in iPSC-ECs (protein, UniProt P56704 19-352, looked up)
Protein Wnt-3a: SYPIWWSLAVGPQYSSLGSQPILCASIPGLVPKQLRFCRNYVEIMPSVAEGIKIGIQECQHQFRGRRWNCTTVHDSLAIFGPVLDKATRESAFVHAIASAGVAFAVTRSCAEGTAAICGCSSRHQGSPGKGWKWGGCSEDIEFGGMVSREFADARENRPDARSAMNRHNNEAGRQAIASHMHLKCKCHGLSGSCEVKTCWWSQPDFRAIGDFLKDKYDSASEMVVEKHRESRGWVETLRPRYTYFKVPTERDLVYYEASPNFCEPNPETGSFGTRDRTCNVSSHGIDGCDLLCCGRGHNARAERRREKCRCVFHWCCYVSCQECTRVYDVHTCK
- expression of ABCB1 (mRNA) (iPSC-ECs [1]): induce
- expression of MFSD2A (mRNA) (iPSC-ECs [1]): induce
- GLUT1 expression (iPSC-ECs [2]): upregulates
- PLVAP expression (iPSC-ECs [2]): downregulates
- effect on brain EC gene regulation (iPSC-ECs [4]): additive effect

B2: ciliary neurotrophic factor (protein, UniProt P26441 1-200, looked up)
Ciliary neurotrophic factor: MAFTEHSPLTPHRRDLCSRSIWLARKIRSDLTALTESYVKHQGLNKNINLDSADGMPVASTDQWSELTEAERLQENLQAYRTFHVLLARLLEDQQVHFTPTEGDFHQAIHTLLLQVAAFAYQIEELMILLEYKIPRNEADGMPINVGDGGLFEKKLWGLKVLQELSQWTVRSIHDLRFISSHQTGIPARGSHYIANNKKM
notes: Human recombinant ciliary neurotrophic factor, 20 ng/ml
- CLDN5 expression (iPSC-ECs [5]): increases
- effect on brain EC gene regulation (iPSC-ECs [4]): additive effect
